Measurements taken from patent US11111500B2, “Mutated protoporphyrinogen IX oxidase (PPX) genes” (CIBUS US LLC, priority 2010, dated 2021).

Tests used:
potato plastidal PPX [1] = assay: Tolerance to flumioxazin of HemG mutant E. coli complemented with potato plastidal PPX (liquid selection, colony count); format: cell-based, Solanum tuberosum
Excerpt: (§1) StcPPX1, less its chloroplast transit peptide was cloned from cDNA into Cibus' proprietary functional screening vector. This vector may be used both for functional screening, and for GRON QC. The potato PPX genes were used to complement the HemG mutant strain of E. coli, which lacks a functional HemG gene, a bacterial homolog of PPX. Without a complementing gene, the media must be supplemented with hematin for E. coli growth.
(§2) In order to assess mutations that confer tolerance to PPX inhibitors such as Chateau (flumioxazin-Valent/Sumitomo), Naja (diphenylether—MAI) or Kixor (saflufenacil—BASF). Pure active ingredients for the PPX inhibiting herbicides Chateau (flumioxazin—Valent/Sumitomo), Spartan (sulfentrazone—FMC) and Kixor/Sharpen (saflufenacil—BASF) were obtained. […]
(§3) Liquid culture selection conditions were developed for both sulfentrazone and flumioxazin. […] Spectrophotometric readings (OD600) were taken for each sample (1:4 dilution) and a sample of each plated on LB-Chlor-IPTG plates to determine whether the OD600 correlated with the number of viable colonies. […]
(§4) Randomly mutagenized plasmids (5′ and 3′ ends) were transformed into XL1-Blue E. coli cells. […] Colony counts were compared between the two and mutation tolerance determined based on the percentage of colonies on the 0.75 mM sulfentrazone plates as compared with those on the 0 mM plates. […]

potato plastidal PPX [2] = assay: Tolerance to sulfentrazone of HemG mutant E. coli complemented with potato plastidal PPX (plate selection, colony count); format: cell-based, Solanum tuberosum; conditions: wild-type potato plastidal PPX clone in hemG mutant E. coli
Excerpt: as §1, §2, §3, §4

Compound	colony numbers against the WT gene with increasing flumioxazin (potato plastidal PPX [1]; 0 to 10 mM in 1 mL liquid cultures)	growth of the wildtype construct at 10 mM flumioxazin (potato plastidal PPX [1]; 10 mM flumioxazin, liquid selection)	sulfentrazone concentration on which the wildtype construct did not grow (potato plastidal PPX [2]) [mM]
C#CCN1C(=O)COc2cc(F)c(N3C(=O)C4=C(CCCC4)C3=O)cc21 [flumioxazin]	steadily decreasing colony numbers	limited growth	
Cc1nn(-c2cc(NS(C)(=O)=O)c(Cl)cc2Cl)c(=O)n1C(F)F [sulfentrazone]			2.5
